# How the values were obtained:
# [1] = test system: SN12C; test: NCI-60 five-dose SRB assay; type: cell-based; conditions: Homo sapiens, Renal cancer, five-dose test
# Description: (§1) The anticancer screening of target compounds over a full panel of 60 human cancer cell lines was carried out using Sulforhodamine B (SRB) assay at the National Cancer Institute (NCI), Bethesda, Maryland, USA, employing the standard protocol.
# [2] = test system: M14; test: NCI-60 five-dose SRB assay; type: cell-based; conditions: Homo sapiens; M14, Melanoma, five-dose test
# Description: as §1
# [3] = test system: NCI-H322M; test: NCI-60 five-dose SRB assay; type: cell-based; conditions: Homo sapiens, NSCL cancer, five-dose test
# Description: as §1
# [4] = test system: OVCAR-8; test: NCI-60 five-dose SRB assay; type: cell-based; conditions: Homo sapiens; OVCAR-8, Ovarian cancer, five-dose test
# Description: as §1
# [5] = test system: SK-MEL-2; test: NCI-60 five-dose SRB assay; type: cell-based; conditions: Homo sapiens; SK-MEL-2, Melanoma, five-dose test
# Description: as §1
# [6] = test system: SF-539; test: NCI-60 five-dose SRB assay; type: cell-based; conditions: Homo sapiens; SF-539, CNS cancer, five-dose test
# Description: as §1
# [7] = test system: U251; test: NCI-60 five-dose SRB assay; type: cell-based; conditions: Homo sapiens, U-251; U251, CNS cancer, five-dose test
# Description: as §1
# [8] = test system: MALME-3M; test: NCI-60 five-dose SRB assay; type: cell-based; conditions: Homo sapiens, Melanoma, five-dose test
# Description: as §1
# [9] = test system: EKVX; test: NCI-60 five-dose SRB assay; type: cell-based; conditions: Homo sapiens, NSCL cancer, five-dose test
# Description: as §1
# [10] = test system: HCC-2998; test: NCI-60 five-dose SRB assay; type: cell-based; conditions: Homo sapiens; HCC-2998, Colon cancer, five-dose test
# Description: as §1
# [11] = test system: HT29; test: NCI-60 five-dose SRB assay; type: cell-based; conditions: Homo sapiens, HT-29; HT29, Colon cancer, five-dose test
# Description: as §1
# [12] = test system: HL-60(TB); test: NCI-60 five-dose SRB assay; type: cell-based; conditions: Homo sapiens, Leukemia, five-dose test
# Description: as §1
# [13] = test system: K-562; test: NCI-60 five-dose SRB assay; type: cell-based; conditions: Homo sapiens, K562; K-562, Leukemia, five-dose test
# Description: as §1
# [14] = test system: NCI-H522; test: NCI-60 five-dose SRB assay; type: cell-based; conditions: Homo sapiens; NCI-H522, NSCL cancer, five-dose test
# Description: as §1
# [15] = test system: TK-10; test: NCI-60 five-dose SRB assay; type: cell-based; conditions: Homo sapiens; TK-10, Renal cancer, five-dose test
# Description: as §1
# [16] = test system: NCI-H226; test: NCI-60 five-dose SRB assay; type: cell-based; conditions: Homo sapiens; NCI-H226, NSCL cancer, five-dose test
# Description: as §1
# [17] = test system: NCI-H23; test: NCI-60 five-dose SRB assay; type: cell-based; conditions: Homo sapiens; NCI-H23, NSCL cancer, five-dose test
# Description: as §1
# [18] = test system: SK-OV-3; test: NCI-60 five-dose SRB assay; type: cell-based; conditions: Homo sapiens; SK-OV-3, Ovarian cancer, five-dose test
# Description: as §1
# [19] = test system: OVCAR-5; test: NCI-60 five-dose SRB assay; type: cell-based; conditions: Homo sapiens; OVCAR-5, Ovarian cancer, five-dose test
# Description: as §1
# [20] = test system: BT-549; test: NCI-60 five-dose SRB assay; type: cell-based; conditions: Homo sapiens; BT-549, Breast cancer, five-dose test
# Description: as §1
# [21] = test system: OVCAR-3; test: NCI-60 five-dose SRB assay; type: cell-based; conditions: Homo sapiens; OVCAR-3, Ovarian cancer, five-dose test
# Description: as §1
# [22] = test system: OVCAR-4; test: NCI-60 five-dose SRB assay; type: cell-based; conditions: Homo sapiens; OVCAR-4, Ovarian cancer, five-dose test
# Description: as §1
# [23] = test system: HOP-62; test: NCI-60 five-dose SRB assay; type: cell-based; conditions: Homo sapiens; HOP-62, NSCL cancer, five-dose test
# Description: as §1
# [24] = test system: UO-31; test: NCI-60 five-dose SRB assay; type: cell-based; conditions: Homo sapiens; UO-31, Renal cancer, five-dose test
# Description: as §1
# [25] = test system: SW-620; test: NCI-60 five-dose SRB assay; type: cell-based; conditions: Homo sapiens; SW-620, Colon cancer, five-dose test
# Description: as §1
# [26] = test system: HCT-116; test: NCI-60 five-dose SRB assay; type: cell-based; conditions: Homo sapiens; HCT-116, Colon cancer, five-dose test
# Description: as §1
# [27] = test system: ACHN; test: NCI-60 five-dose SRB assay; type: cell-based; conditions: Homo sapiens, Renal cancer, five-dose test
# Description: as §1
# [28] = test system: SNB-19; test: NCI-60 five-dose SRB assay; type: cell-based; conditions: Homo sapiens; SNB-19, CNS cancer, five-dose test
# Description: as §1
# [29] = test system: SR; test: NCI-60 five-dose SRB assay; type: cell-based; conditions: Homo sapiens, Leukemia, five-dose test
# Description: as §1
# [30] = test system: T-47D; test: NCI-60 five-dose SRB assay; type: cell-based; conditions: Homo sapiens, T47D, Breast cancer, five-dose test
# Description: as §1
# [31] = test system: CAKI-1; test: NCI-60 five-dose SRB assay; type: cell-based; conditions: Homo sapiens; CAKI-1, Renal cancer, five-dose test
# Description: as §1
# [32] = test system: DU-145; test: NCI-60 five-dose SRB assay; type: cell-based; conditions: Homo sapiens; DU-145, Prostate cancer, five-dose test
# Description: as §1
# [33] = test system: SK-MEL-5; test: NCI-60 five-dose SRB assay; type: cell-based; conditions: Homo sapiens; SK-MEL-5, Melanoma, five-dose test
# Description: as §1
# [34] = test system: LOX IMVI; test: NCI-60 five-dose SRB assay; type: cell-based; conditions: Homo sapiens, Melanoma, five-dose test
# Description: as §1
# [35] = test system: 786-0; test: NCI-60 five-dose SRB assay; type: cell-based; conditions: Homo sapiens; 786-0, Renal cancer, five-dose test
# Description: as §1
# [36] = test system: HCT-15; test: NCI-60 five-dose SRB assay; type: cell-based; conditions: Homo sapiens; HCT-15, Colon cancer, five-dose test
# Description: as §1
# [37] = test system: MDA-MB-435; test: NCI-60 five-dose SRB assay; type: cell-based; conditions: Homo sapiens; MDA-MB-435, Melanoma, five-dose test
# Description: as §1
# [38] = test system: RPMI-8226; test: NCI-60 five-dose SRB assay; type: cell-based; conditions: Homo sapiens; RPMI-8226, Leukemia, five-dose test
# Description: as §1
# [39] = test system: RXF 393; test: NCI-60 five-dose SRB assay; type: cell-based; conditions: Homo sapiens; RXF 393, Renal cancer, five-dose test
# Description: as §1
# [40] = test system: CCRF-CEM; test: NCI-60 five-dose SRB assay; type: cell-based; conditions: Homo sapiens, Leukemia, five-dose test
# Description: as §1
# [41] = test system: A498; test: NCI-60 five-dose SRB assay; type: cell-based; conditions: Homo sapiens; A498, Renal cancer, five-dose test
# Description: as §1
# [42] = biological target: T1, B-RAF^V600E (Homo sapiens, UniProt P15056, V600E); test: HotSpot kinase assay (RBC), B-RAF^V600E; type: biochemical; conditions: for IC50: 10 µM ATP, 10-dose singlicate IC50 mode
# T1 construct: purchased Reaction Biology Corporation (RBC), Kinase HotSpot service
# T1 sequence (P15056 whole entry V600E): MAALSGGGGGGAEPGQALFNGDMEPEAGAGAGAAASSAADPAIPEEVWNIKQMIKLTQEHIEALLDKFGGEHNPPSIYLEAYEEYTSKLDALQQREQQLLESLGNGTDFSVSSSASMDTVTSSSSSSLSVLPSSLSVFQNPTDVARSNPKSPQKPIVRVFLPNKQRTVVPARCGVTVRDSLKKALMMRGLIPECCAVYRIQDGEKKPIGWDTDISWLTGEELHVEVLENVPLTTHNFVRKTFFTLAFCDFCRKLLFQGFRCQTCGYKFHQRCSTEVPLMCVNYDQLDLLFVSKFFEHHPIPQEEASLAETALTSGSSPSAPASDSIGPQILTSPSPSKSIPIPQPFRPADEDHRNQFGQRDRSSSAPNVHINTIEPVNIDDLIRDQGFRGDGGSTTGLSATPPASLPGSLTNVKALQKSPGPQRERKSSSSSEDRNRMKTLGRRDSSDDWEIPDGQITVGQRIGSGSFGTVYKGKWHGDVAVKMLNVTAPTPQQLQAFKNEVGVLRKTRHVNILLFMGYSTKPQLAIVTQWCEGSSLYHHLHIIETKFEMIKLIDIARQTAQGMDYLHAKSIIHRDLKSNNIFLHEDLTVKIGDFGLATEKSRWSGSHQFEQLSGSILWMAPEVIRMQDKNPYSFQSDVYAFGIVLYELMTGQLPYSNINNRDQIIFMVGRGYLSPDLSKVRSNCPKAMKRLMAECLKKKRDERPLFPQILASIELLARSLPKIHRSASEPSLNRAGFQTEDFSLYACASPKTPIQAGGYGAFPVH
smiles,measurement,setting,value
"COc1cccc2nc(Nc3ccc(F)c(NC(=O)c4ccc(CN5CCN(C)CC5)c(C(F)(F)F)c4)c3)ccc12 [Compound 15a, N-(2-fluoro-5-((5-methoxyquinolin-2-yl)amino)phenyl)-4-((4-methylpiperazin-1-yl)methyl)-3-(trifluoromethyl)benzamide]",GI50,[1],13.4 µM
same,GI50,[2],13.1 µM
same,GI50,[3],15.2 µM
same,GI50,[4],15.8 µM
same,GI50,[5],16.1 µM
same,GI50,[6],12.4 µM
same,GI50,[7],13.4 µM
same,GI50,[8],11.7 µM
same,GI50,[9],14.7 µM
same,GI50,[10],18.8 µM
same,GI50,[11],3.61 µM
same,GI50,[12],6.52 µM
same,GI50,[13],3.59 µM
same,GI50,[14],16 µM
same,GI50,[15],16.4 µM
same,GI50,[16],11.1 µM
same,GI50,[17],15.5 µM
same,GI50,[18],15.7 µM
same,GI50,[19],16.1 µM
same,GI50,[20],10.5 µM
same,GI50,[21],14.4 µM
same,GI50,[22],13.9 µM
same,GI50,[23],14.5 µM
same,GI50,[24],12.6 µM
same,GI50,[25],16.9 µM
same,GI50,[26],8.75 µM
same,GI50,[27],16.5 µM
same,GI50,[28],17.2 µM
same,GI50,[29],9.83 µM
same,GI50,[30],14.8 µM
same,GI50,[31],11.5 µM
same,GI50,[32],12.9 µM
same,GI50,[33],15.5 µM
same,GI50,[34],13.8 µM
same,GI50,[35],12.5 µM
same,GI50,[36],13.4 µM
same,GI50,[37],15.1 µM
same,GI50,[38],9.3 µM
same,GI50,[39],3.71 µM
same,GI50,[40],9.71 µM
same,GI50,[41],16.9 µM
same,IC50,[42],0.314 ± 0.0229 µM
"COc1ccc2nc(Nc3cccc(NC(=O)c4ccc(CN5CCN(C)CC5)c(C(F)(F)F)c4)c3)ccc2c1 [Compound 16a, N-(3-((6-methoxyquinolin-2-yl)amino)phenyl)-4-((4-methylpiperazin-1-yl)methyl)-3-(trifluoromethyl)benzamide]",GI50,[1],5.49 µM
same,GI50,[2],3.63 µM
same,GI50,[3],6.06 µM
same,GI50,[4],5.82 µM
same,GI50,[5],5.98 µM
same,GI50,[6],2.08 µM
same,GI50,[7],3.77 µM
same,GI50,[8],4.62 µM
same,GI50,[9],4.53 µM
same,GI50,[10],5.25 µM
same,GI50,[11],1.32 µM
same,GI50,[12],5.46 µM
same,GI50,[13],0.882 µM
same,GI50,[14],4.88 µM
same,GI50,[15],6.52 µM
same,GI50,[16],4.6 µM
same,GI50,[17],5.06 µM
same,GI50,[18],5.99 µM
same,GI50,[19],6.1 µM
same,GI50,[20],5.58 µM
same,GI50,[21],5.89 µM
same,GI50,[22],4.32 µM
same,GI50,[23],6.36 µM
same,GI50,[24],5.68 µM
same,GI50,[25],5.89 µM
same,GI50,[26],2.41 µM
same,GI50,[27],4.88 µM
same,GI50,[28],6.14 µM
same,GI50,[29],1.31 µM
same,GI50,[30],4.12 µM
same,GI50,[31],4.9 µM
same,GI50,[32],5.24 µM
same,GI50,[33],5.1 µM
same,GI50,[34],1.55 µM
same,GI50,[35],5 µM
same,GI50,[36],1.18 µM
same,GI50,[37],5.73 µM
same,GI50,[38],3.14 µM
same,GI50,[39],1.75 µM
same,GI50,[40],2.15 µM
same,GI50,[41],7.35 µM
same,IC50,[42],0.193 ± 0.0076 µM
same,"better kinase inhibition activity compared to 14a, B-RAF^V600E",[42]; ratio of IC50 versus 14a,2.6 fold
